Test results as given in US20250325508A1, “MODULATORS OF PROTEASOME DYNAMICS AND/OR FUNCTION, COMPOSITIONS, METHODS, AND THERAPEUTIC USES THEREOF” (TECHNION RESEARCH & DEVELOPMENT FOUNDATION LIMITED, priority 2022, published 2025).

Assays:
HeLa and RT4 cells = assay: Cell survival assay (live/dead imaging); type: cell-based
Procedure: Data analysis was performed using the Live/Dead module of the MetaXpress software (Molecular Devices). […] Intensities were quantified using Li-Cor imager and software (Odyssey).

26S proteasome = assay: Proteasome subcellular localization in cultured cells (immunofluorescence, cell fractionation/Western blot); type: cell-based, human; details: for proteasome dynamics under known p38 activators: RT4 and HeLa cells; for proteasome translocation from the nucleus to the cytosol: amino acid starvation, substance added to starvation medium; for proteasome localization: non-stressed / well-fed cells, complete medium
Procedure: Cells were incubated for 20 min in fractionation buffer [20 mM HEPES pH 7.3, 10 mM KCl, 5 mM ATP, 5 mM MgCl2, and protease inhibitor cocktail (Roche)], followed by the addition of Digitonin (0.01%). They were then mixed thoroughly and centrifuged at 1,000×g for 5 min. The supernatant was collected as cytosolic fraction, and the pellet was washed with fractionation buffer supplemented with NP-40 (0.05%) and centrifuged, and the pellet (nuclei) was resuspended in fractionation buffer supplemented with sodium deoxycholate (0.5%), followed by its sonication.
(§1) Cells were washed twice with ice cold PBS and scraped into lysis buffer (50 mM Tris-HCl, pH 7.4, 130 mM NaCl, 0.5% NP-40) supplemented with freshly added protease inhibitor cocktail, 5 mM ATP, 10 mM iodoacetamide, and 5 mM N-ethyl maleimide. Protein concentration was measured by the BCA assay according to the manufacturer's instructions (Pierce, Rockford, IL). 30 μg of cellular protein were resolved via SDS-PAGE, transferred to a nitrocellulose membrane and immunoblotted with the appropriate antibody.
Cells were seeded on glass cover slips for 36 h. Following the indicated treatments, they were fixed with 4% PFA for 15 min, washed with phosphate-buffered saline (PBS) and incubated in PBS containing 10% goat serum for 1 h at room temperature, followed by 2 h incubation with the indicated primary antibody. Following extensive wash with PBS, the fixed cells were incubated with the relevant secondary antibody for 1 h, washed and mounted. Images were acquired using Zeiss LSM 700 confocal microscope (Zeiss, Oberkochen, Germany). […]

HeLa cells = assay: Amino acids level measurement (LC-MS); type: cell-based, human; details: Torin1 treatment relative to control
Procedure: Metabolic analysis was carried out as previously described [G. M. MacKay et al., 1st Ed. (Elsevier Inc., 2015)]. Briefly, cells were rapidly washed 3 times with ice-cold PBS and extracted with an aqueous solution of 50% Methanol, and 30% Acetonitrile. Samples were centrifuged at 16,000×g for 10 min at 4° C., and the supernatants were analyzed using HPLC-MS (Q-Exactive Orbitrap Mass Spectrometer (Thermo Scientific) coupled to Thermo Scientific UltiMate 3000 HPLC system). The HPLC setup consisted of a ZIC-PHILIC column (SeQuant, 150×2.1 mm, 5 μm, Merck) with a ZIC-PHILIC guard column (SeQuant, 20×2.1 mm). The aqueous mobile phase solvent was 20 mM ammonium carbonate adjusted to pH 9.4 with 0.1% ammonium hydroxide. The organic mobile phase was acetonitrile. Amino acids and other metabolites were separated over a 15 min linear gradient from 80% organic to 80% aqueous. The column temperature was 45° C., the flow rate 200 μl/min, and the run time 27 min. All metabolites were detected across a mass range of 75-1,000 m/z using the Q-Exactive mass spectrometer at a resolution of 35,000 (at 200 m/z) with electrospray ionization and polarity switching mode. Mass accuracy obtained for all metabolites was below 5 ppm. Data were acquired with Thermo Xcalibur software. The peak areas of different amino acids were determined using Thermo TraceFinder software through which metabolites were identified by the exact mass of the singly charged ion and the known retention time on the HPLC column. Commercially available standard compounds had been analyzed before to determine ion masses and retention times on the ZIC-PHILIC column. Protein quantitation based on the Lowry method was performed for normalization. The figure presents mean+/−SD of three replicates.

STAT3 = assay: Western blot for STAT3 phosphorylated at Tyr705; type: cell-based, human; details: Torin1 treatment
Procedure: as §1

## COc1ccc(C[C@H]2NC[C@H](O)[C@H]2OC(C)=O)cc1 [anisomycin]
HeLa and RT4 cells
  cell death under known p38 activators: many of the cells died
26S proteasome
  proteasome dynamics under known p38 activators: the proteasome was locked in the nucleus

## C[C@@H]1C[C@@H]([C@H](O)CC2CC(=O)NC(=O)C2)C(=O)[C@@H](C)C1 [cycloheximide]
26S proteasome; replenishment of amino acids after starvation, in presence of substance
  restoration of the nuclear proteasomal pool: did not prevent restoration of the nuclear proteasomal pool

## N[C@@H](Cc1ccc(O)cc1)C(=O)O [Tyr, 4-hydroxyphenylalanine]
26S proteasome
  proteasome translocation from the nucleus to the cytosol: inhibitory effect on proteasome translocation

## O=[N+]([O-])c1ccc2c(c1)S(=O)(=O)C=C2 [Stattic]
26S proteasome
  proteasome translocation from the nucleus to the cytosol: prevented proteasome translocation from the nucleus to the cytosol

## N[C@@H](Cc1ccccc1)C(=O)O [Phe, Phenylalanine]
26S proteasome
  proteasome translocation from the nucleus to the cytosol: inhibitory effect on proteasome translocation

## Ivermectin
26S proteasome
  proteasome localization: cytosolic accumulation

## CCC(=O)N1CCN(c2ccc(-n3c(=O)ccc4cnc5ccc(-c6cnc7ccccc7c6)cc5c43)cc2C(F)(F)F)CC1 [Torin1]
HeLa cells
  level of amino acids: gain in amino acids
STAT3
  STAT3 Y705 phosphorylation: upregulation of Y705 phosphorylation
26S proteasome
  proteasome localization: induced nuclear export of both 20S and 19S sub-complexes

## OC[C@@H](O)[C@@H](O)[C@H](O)[C@@H](O)CO [hyperosmotic stress, Sorbitol]
HeLa and RT4 cells
  cell death under known p38 activators: many of the cells died
26S proteasome
  proteasome dynamics under known p38 activators: the proteasome was locked in the nucleus

## N[C@@H](Cc1c[nH]c2ccccc12)C(=O)O [Trp, Tryptophan]
26S proteasome
  proteasome translocation from the nucleus to the cytosol: inhibitory effect on proteasome translocation
